In patent US20210071180A1, “MICRORNA 584-5P COMPOSITIONS AND METHODS FOR TREATING CANCER” (BOARD OF REGENTS, THE UNIVERSY OF TEXAS SYSTEM, priority 2018, published 2021):

Key:
melanoma cells = details: cited from earlier work
D458Med cells = assay: miRNA mimic library screen, CellTiter-Glo cell viability; assay type: cell-based; details: D458Med cells, 72 hours
Method: To identify miRNAs that may sensitize VCR response in MB, a high-throughput screening platform was combined with a library of 1,902 chemically synthesized human miRNA mimics. The miRNAs are arrayed in a one-miRNA-one-well format in 96-well microtiter plates. Reverse transfection of Group 3/c-Myc-amplified D458Med cells was performed in triplicate in the presence and absence of a sublethal dose of VCR, which was optimized in four MB cell lines before the screen (FIG. 2A). Cells were subjected to VCR at an IC20 lethal concentration for 72 hours after 48 hours of transfection, and cell viability was measured (FIG. 1A). Candidate miRNAs were prioritized for validation by functional and interaction assays using standard Student t-tests (with pooled variance), false discovery rate (Q=0.5%), and by using the magnitude of response (lowest 2.5 percentile of the distribution of the μVCR/μControl ratios).
miRNA mimic library screen. The primary screen was conducted using MI00200 MISSION microRNA Mimic v.17, in which miRNA mimics were arrayed in a one-miRNA-one-well format in 96-well microtiter plates. […] Cell viability was assessed using CellTiter-Glo (Promega, Madison, Wis., USA) according to the manufacturer's protocol. ath-miR-416 or cel-miR-243 was added as a negative control, whereas siRNA against PLK-1 was used as a positive control in each plate. […]

Row | Compound | RAD51 expression (melanoma cells) | homologous recombination (HR) (melanoma cells) | 20% inhibitory concentration (D458Med cells)
1 | Nc1ccccc1NC(=O)c1ccc(CNC(=O)OCc2cccnc2)cc1 [MS-275] | decreases RAD51 expression | blocks HR | 
2 | CC[C@]1(O)C[C@H]2CN(CCc3c([nH]c4ccccc34)[C@@](C(=O)OC)(c3cc4c(cc3OC)N(C=O)[C@H]3[C@@](O)(C(=O)OC)[C@H](OC(C)=O)[C@]5(CC)C=CCN6CC[C@]43[C@@H]65)C2)C1 [VCR, vincristine, reference compound] |  |  | 2 nM
